In brackets after ≈: the same amount, converted by molar mass.
What was measured:
[1] = Hepatic microsomal stability, MLM; format: in vitro ADME
[2] = In vitro kinetic solubility; settings: In vitro kinetic solubility, ph 7.4
[3] = Hepatic microsomal stability, HLM; format: in vitro ADME, human; settings: In vitro human liver microsomal stability; for perc_remaining_no_cofactor: no cofactor
[4] = LogD; settings: pH 7.4; In vitro LogD
[5] = Permeability Papp (AB) MDR1/MDCKII; settings: In vitro MDR1-MDCKII permeability; for papp_a_to_b_mean: A to B; for perc_recovery_a_to_b_mean: recovery A to B
[6] = In vitro mouse liver microsomal stability
[7] = In vitro mouse liver microsomal stability, no cofactor
[8] = In vitro mouse liver microsomal stability; no cofactor

Row | SMILES | clint [1, 6] | perc_remaining [1, 6] | t_half [1, 6] | perc_remaining_no_cofactor [1, 7] | solubility_mean [2] | clint [3] | perc_remaining [3] | t_half [3] | perc_remaining_no_cofactor [3] | logd [4] | papp_a_to_b_mean ([5]; mean) | perc_recovery_a_to_b_mean ([5]; mean) | perc_remaining_no_cofactor [1, 8] | papp_a_to_b_mean ([5]; no inhibitor) | perc_recovery_a_to_b_mean ([5]; no inhibitor)
1 | CNC(=O)c1cc2c(N[C@@H](c3ccc4c(c3)NC(=O)CO4)C(C)C)ncnc2[nH]1 [ASAP-0008571] | 20.0 µL/min/mg | 71.0% | 84.4 min | 103.0% | 372 µM (≈ 147 µg/mL) | 52.0 µL/min/mg | 39.0% | 32.0 min | 94.0% | 2.8 | 0.873 ×10⁻⁶ cm/s | 88.1% | – | – | –
2 | CC(C)[C@@H](Nc1ncnc2[nH]c(-c3cnn(C)c3C#N)cc12)c1ccc2c(n1)NC(=O)CO2 [ASAP-0008644] | 145.0 µL/min/mg | 9.0% | 11.5 min | 92.0% | 29 µM (≈ 12.9 µg/mL) | 70.0 µL/min/mg | 30.0% | 23.7 min | 97.0% | 3.7 | 9.83 ×10⁻⁶ cm/s | 91.2% | – | – | –
3 | CC(C)[C@@H](Nc1ncnc2[nH]c(-c3cnn(CC(N)=O)c3)cc12)c1ccc2c(n1)OCCO2 [ASAP-0008646] | 12.0 µL/min/mg | 83.0% | 145.2 min | 104.0% | 385 µM (≈ 173 µg/mL) | 14.0 µL/min/mg | 77.0% | 120.2 min | 95.0% | 2.4 | 2.46 ×10⁻⁶ cm/s | 73.0% | – | – | –
4 | CC(C)[C@@H](Nc1ncnc2[nH]c(-c3cnn(C)c3C#N)cc12)c1ccc2c(c1)S(=O)(=O)CCC2 [ASAP-0008651] | 440.0 µL/min/mg | 0.0% | 3.8 min | – | 34 µM (≈ 16.2 µg/mL) | 490.0 µL/min/mg | 1.0% | 3.4 min | 94.0% | 3.6 | 1.97 ×10⁻⁶ cm/s | 81.6% | 96.0% | – | –
5 | CC(C)[C@@H](Nc1ncnc2[nH]c(-c3cnn(C)c3)cc12)c1ccc2c(c1)S(=O)(=O)CCC2 [ASAP-0008678] | 155.0 µL/min/mg | 7.0% | 10.8 min | – | 94 µM (≈ 42.4 µg/mL) | 141.0 µL/min/mg | 10.0% | 11.9 min | 102.0% | 3.3 | 1.73 ×10⁻⁶ cm/s | 85.6% | 102.0% | – | –
6 | CNC(=O)c1cc2c(N[C@@H](c3ccc4c(c3)S(=O)(=O)CCC4)C(C)C)ncnc2[nH]1 [ASAP-0008685] | 46.0 µL/min/mg | 47.0% | 36.5 min | – | 369 µM (≈ 158 µg/mL) | 77.0 µL/min/mg | 25.0% | 21.7 min | 101.0% | 2.4 | 0.46 ×10⁻⁶ cm/s | 104.0% | 100.0% | – | –
7 | CNCc1cc(-c2cc3c(N[C@@H](c4ccc5c(c4)S(=O)(=O)CCC5)C(C)C)ncnc3[nH]2)co1 [ASAP-0010745] | 52.0 µL/min/mg | 41.0% | 32.2 min | – | 321 µM (≈ 154 µg/mL) | 57.0 µL/min/mg | 40.0% | 29.4 min | 110.0% | 2.1 | 1.61 ×10⁻⁶ cm/s | 90.5% | 108.0% | – | –
8 | CC(C)[C@H](Nc1ncnc2[nH]c(-c3cnn(C)c3C#N)cc12)c1ccc2c(c1)OCCO2 [ASAP-0010980] | 257.0 µL/min/mg | 2.0% | 6.5 min | 113.0% | 15 µM (≈ 6.44 µg/mL) | 706.0 µL/min/mg | 1.0% | 2.4 min | 103.0% | 3.3 | – | – | – | 5.56 ×10⁻⁶ cm/s | 39.3%
9 | CC(C)[C@@H](Nc1ncnc2[nH]c(-c3cnn(C)c3C#N)cc12)c1ccc2c(c1)OCCO2 [ASAP-0011033] | 129.0 µL/min/mg | 13.0% | 13.0 min | 106.0% | 20 µM (≈ 8.59 µg/mL) | 47.0 µL/min/mg | 46.0% | 35.4 min | 101.0% | 3.4 | – | – | – | 5.11 ×10⁻⁶ cm/s | 31.2%
10 | CNC(=O)c1c[nH]c2ncnc(N[C@@H](c3ccc4c(c3)S(=O)(=O)CCC4)C(C)C)c12 [ASAP-0011156] | 113.0 µL/min/mg | 15.0% | 14.7 min | 108.0% | 204 µM (≈ 87.2 µg/mL) | 108.0 µL/min/mg | 17.0% | 15.4 min | 94.0% | 2.6 | – | – | – | 0.857 ×10⁻⁶ cm/s | 78.7%
11 | CC(C)[C@H](Nc1ncnc2[nH]c(C(=O)N[C@@H]3CCN(C)C3)cc12)c1ccc2c(c1)S(=O)(=O)CCC2 [ASAP-0011196] | 3.0 µL/min/mg | 104.0% | 648.8 min | 107.0% | 366 µM (≈ 182 µg/mL) | 3.0 µL/min/mg | 98.0% | 626.9 min | 100.0% | 1.4 | – | – | – | 0.707 ×10⁻⁶ cm/s | 103.0%
12 | CNC(=O)c1cc2c(N[C@@H](c3ccc4c(c3)NC(=O)CO4)C(C)C)ncnc2[nH]1 [ASAP-0011219] | 33.0 µL/min/mg | 57.0% | 51.2 min | 99.0% | 380 µM (≈ 150 µg/mL) | 175.0 µL/min/mg | 6.0% | 9.6 min | 96.0% | 2.9 | 1.21 ×10⁻⁶ cm/s | 105.0% | – | – | –
13 | CC(C)[C@H](Nc1ncnc2[nH]c(-c3cnn(CC(N)=O)c3)cc12)c1ccc2c(n1)OCCO2 [ASAP-0012307] | 5.0 µL/min/mg | 99.0% | 359.1 min | 110.0% | 377 µM (≈ 169 µg/mL) | 12.0 µL/min/mg | 85.0% | 134.5 min | 90.0% | 2.3 | – | – | – | 1.27 ×10⁻⁶ cm/s | 100.0%
14 | CCNC(=O)c1cc2c(N[C@H](c3ccc4c(c3)S(=O)(=O)CCC4)C(C)C)ncnc2[nH]1 [ASAP-0012325] | 64.0 µL/min/mg | 34.0% | 26.3 min | 97.0% | 337 µM (≈ 149 µg/mL) | 109.0 µL/min/mg | 17.0% | 15.4 min | 102.0% | 2.7 | – | – | – | 0.717 ×10⁻⁶ cm/s | 88.3%
15 | CC(C)[C@H](Nc1ncnc2[nH]c(C(=O)N[C@H]3CCN(C)C3)cc12)c1ccc2c(c1)S(=O)(=O)CCC2 [ASAP-0012334] | 1.0 µL/min/mg | 98.0% | 1540.5 min | 97.0% | 396 µM (≈ 197 µg/mL) | 11.0 µL/min/mg | 80.0% | 149.8 min | 98.0% | 1.4 | – | – | – | 0.175 ×10⁻⁶ cm/s | 89.9%
16 | CC(C)[C@H](Nc1ncnc2[nH]c(-c3cnn(CC(=O)N(C)C)c3)cc12)c1ccc2c(c1)S(=O)(=O)CCC2 [ASAP-0013744] | 124.0 µL/min/mg | 13.0% | 13.5 min | 98.0% | 361 µM (≈ 188 µg/mL) | 92.0 µL/min/mg | 22.0% | 18.1 min | 97.0% | 2.2 | – | – | – | 1.17 ×10⁻⁶ cm/s | 116.0%
17 | CC(C)[C@@H](Nc1ncnc2[nH]c(-c3cnn(CC(=O)N(C)C)c3)cc12)c1ccc2c(c1)S(=O)(=O)CCC2 [ASAP-0013747] | 31.0 µL/min/mg | 59.0% | 53.8 min | 102.0% | 256 µM (≈ 134 µg/mL) | 297.0 µL/min/mg | 1.0% | 5.6 min | 99.0% | 2.2 | – | – | – | 0.555 ×10⁻⁶ cm/s | 78.8%

Source: article doi:10.1101/2024.08.19.608619, “Discovery of potent SARS-CoV-2 nsp3 macrodomain inhibitors uncovers lack of translation to cellular antiviral response” (bioRxiv, 2024)
